Test results from US8445676B2, “Pyrrolotriazine kinase inhibitors” (Bristol-Myers Squibb Company, priority 2008, dated 2013).

Target: JAK2 (Homo sapiens, UniProt O60674)
Test: JAK2 Tyrosine Kinase Assay
Type: biochemical
Settings: list of named compounds; read-out: IC50 in the JAK2 assay
Protocol: JAK2 Tyrosine Kinase Assay
The assays were performed in V-bottom 384-well plates. […] The reaction was initiated by the combination of JAK2 with substrates and test compounds. The reaction was incubated at room temperature for 60 min. and terminated by adding 45 μl of 35 mM EDTA to each sample. The reaction mixture was analyzed on the Caliper LabChip 3000 by electrophoretic separation of the fluorescent substrate and phosphorylated product. […] Compounds were dissolved at 10 mM in dimethylsulfoxide (DMSO) and evaluated at eleven concentrations, each in duplicate. IC50 values were derived by non-linear regression analysis

Sequence of JAK2 (O60674 whole entry): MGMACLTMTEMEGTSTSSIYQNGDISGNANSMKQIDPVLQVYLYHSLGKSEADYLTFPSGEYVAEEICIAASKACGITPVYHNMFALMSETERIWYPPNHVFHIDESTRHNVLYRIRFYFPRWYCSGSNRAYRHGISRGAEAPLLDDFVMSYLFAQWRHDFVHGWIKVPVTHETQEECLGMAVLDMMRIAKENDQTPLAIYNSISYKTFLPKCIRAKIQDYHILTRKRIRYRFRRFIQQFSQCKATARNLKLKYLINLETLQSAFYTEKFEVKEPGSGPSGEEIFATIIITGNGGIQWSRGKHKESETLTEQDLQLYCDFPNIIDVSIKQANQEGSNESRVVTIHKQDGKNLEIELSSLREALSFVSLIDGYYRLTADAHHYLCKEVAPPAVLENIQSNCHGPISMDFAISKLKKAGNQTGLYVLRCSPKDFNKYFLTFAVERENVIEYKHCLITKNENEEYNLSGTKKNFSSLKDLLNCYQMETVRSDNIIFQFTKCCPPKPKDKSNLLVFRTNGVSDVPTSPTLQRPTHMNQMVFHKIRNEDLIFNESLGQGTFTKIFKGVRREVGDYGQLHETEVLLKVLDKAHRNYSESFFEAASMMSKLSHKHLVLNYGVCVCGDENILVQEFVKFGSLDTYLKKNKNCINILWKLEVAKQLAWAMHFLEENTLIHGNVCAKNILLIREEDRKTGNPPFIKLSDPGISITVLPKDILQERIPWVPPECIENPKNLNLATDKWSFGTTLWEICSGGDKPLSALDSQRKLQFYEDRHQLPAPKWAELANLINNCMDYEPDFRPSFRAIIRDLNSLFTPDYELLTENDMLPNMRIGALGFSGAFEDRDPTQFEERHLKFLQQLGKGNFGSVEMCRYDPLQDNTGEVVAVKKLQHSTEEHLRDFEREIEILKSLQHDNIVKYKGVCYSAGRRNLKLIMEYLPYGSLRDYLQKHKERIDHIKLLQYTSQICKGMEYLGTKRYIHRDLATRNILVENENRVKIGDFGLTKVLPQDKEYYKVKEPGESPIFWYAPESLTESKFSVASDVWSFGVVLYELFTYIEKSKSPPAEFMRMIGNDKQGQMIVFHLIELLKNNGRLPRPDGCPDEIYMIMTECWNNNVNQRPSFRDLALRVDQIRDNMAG

Compound	IC50
Cc1cc(Nc2nc(N3CCN(C(=O)c4ccccc4COc4ccccc4)CC3)nn3cccc23)n[nH]1 [N-(5-methyl-1H-pyrazol-3-yl)-2-(4-(2-(phenoxymethyl)benzoyl)-1-piperazinyl)pyrrolo[2,1-f][1,2,4]triazin-4-amine]	≤ 5 nM
Cc1cc(Nc2nc(N3CCN(C(=O)c4cnco4)CC3)nn3cccc23)n[nH]1 [N-(5-methyl-1H-pyrazol-3-yl)-2-(4-(1,3-oxazol-5-ylcarbonyl)-1-piperazinyl)pyrrolo[2,1-f][1,2,4]triazin-4-amine]	≤ 5 nM
COc1ccc(C(=O)N2CCN(c3nc(Nc4cc(C)[nH]n4)c4cccn4n3)CC2)cc1 [2-(4-(4-methoxybenzoyl)-1-piperazinyl)-N-(5-methyl-1H-pyrazol-3-yl)pyrrolo[2,1-f][1,2,4]triazin-4-amine]	≤ 5 nM
Cc1cc(Nc2nc(N3CCN(C(=O)CC4CCCCC4)CC3)nn3cccc23)n[nH]1 [2-(4-(cyclohexylacetyl)-1-piperazinyl)-N-(5-methyl-1H-pyrazol-3-yl)pyrrolo[2,1-f][1,2,4]triazin-4-amine]	≤ 5 nM
Cc1cc(Nc2nc(N3CCN(C(=O)c4ccccc4OC(F)(F)F)CC3)nn3cccc23)n[nH]1 [N-(5-methyl-1H-pyrazol-3-yl)-2-(4-(2-(trifluoromethoxy)benzoyl)-1-piperazinyl)pyrrolo[2,1-f][1,2,4]triazin-4-amine]	≤ 5 nM
CC(=O)Nc1ccccc1C(=O)N1CCN(c2nc(Nc3cc(C)[nH]n3)c3cccn3n2)CC1 [N-(2-((4-(4-((5-methyl-1H-pyrazol-3-yl)amino)pyrrolo[2,1-f][1,2,4]triazin-2-yl)-1-piperazinyl)carbonyl)phenyl)acetamide]	≤ 5 nM
Cc1cc(Nc2nc(N3CCN(C(=O)COCc4ccccc4)CC3)nn3cccc23)n[nH]1 [2-(4-((benzyloxy)acetyl)-1-piperazinyl)-N-(5-methyl-1H-pyrazol-3-yl)pyrrolo[2,1-f][1,2,4]triazin-4-amine]	≤ 5 nM
Cc1cc(Nc2nc(N3CCN(C(=O)c4ccccc4-c4c(C)n[nH]c4C)CC3)nn3cccc23)n[nH]1 [2-(4-(2-(3,5-dimethyl-1H-pyrazol-4-yl)benzoyl)-1-piperazinyl)-N-(5-methyl-1H-pyrazol-3-yl)pyrrolo[2,1-f][1,2,4]triazin-4-amine]	≤ 5 nM
Cc1cc(Nc2nc(N3CCN(C(=O)Cc4ccccc4Cl)CC3)nn3cccc23)n[nH]1 [2-(4-((2-chlorophenyl)acetyl)-1-piperazinyl)-N-(5-methyl-1H-pyrazol-3-yl)pyrrolo[2,1-f][1,2,4]triazin-4-amine]	≤ 5 nM
Cc1cc(Nc2nc(N3CCN(C(=O)[C@@H](O)c4ccccc4)CC3)nn3cccc23)n[nH]1 [(1S)-2-(4-(4-((5-methyl-1H-pyrazol-3-yl)amino)pyrrolo[2,1-f][1,2,4]triazin-2-yl)-1-piperazinyl)-2-oxo-1-phenylethanol]	≤ 5 nM
Cc1cc(Nc2nc(N3CCN(C(=O)C4(c5ccccc5)CCC4)CC3)nn3cccc23)n[nH]1 [N-(5-methyl-1H-pyrazol-3-yl)-2-(4-((1-phenylcyclobutyl)carbonyl)-1-piperazinyl)pyrrolo[2,1-f][1,2,4]triazin-4-amine]	≤ 5 nM
COc1cccc(C(=O)N2CCN(c3nc(Nc4cc(C)[nH]n4)c4cccn4n3)CC2)c1 [2-(4-(3-methoxybenzoyl)-1-piperazinyl)-N-(5-methyl-1H-pyrazol-3-yl)pyrrolo[2,1-f][1,2,4]triazin-4-amine]	≤ 5 nM
Cc1cc(Nc2nc(N3CCN(C(=O)Cc4ccccc4C#N)CC3)nn3cccc23)n[nH]1 [2-(2-(4-(4-((5-methyl-1H-pyrazol-3-yl)amino)pyrrolo[2,1-f][1,2,4]triazin-2-yl)-1-piperazinyl)-2-oxoethyl)benzonitrile]	≤ 5 nM
Cc1cc(Nc2nc(N3CCN(C(=O)c4cccc(F)c4)CC3)nn3cccc23)n[nH]1 [2-(4-(3-fluorobenzoyl)-1-piperazinyl)-N-(5-methyl-1H-pyrazol-3-yl)pyrrolo[2,1-f][1,2,4]triazin-4-amine]	≤ 5 nM

Continued, values first:

IC50	Compound
≤ 5 nM	Cc1cc(Nc2nc(N3CCN(C(=O)c4ccccc4F)CC3)nn3cccc23)n[nH]1 [2-(4-(2-fluorobenzoyl)-1-piperazinyl)-N-(5-methyl-1H-pyrazol-3-yl)pyrrolo[2,1-f][1,2,4]triazin-4-amine]
≤ 5 nM	Cc1cc(Nc2nc(N3CCN(C(=O)Cc4cccc(C#N)c4)CC3)nn3cccc23)n[nH]1 [3-(2-(4-(4-((5-methyl-1H-pyrazol-3-yl)amino)pyrrolo[2,1-f][1,2,4]triazin-2-yl)-1-piperazinyl)-2-oxoethyl)benzonitrile]
≤ 5 nM	Cc1cc(Nc2nc(N3CCN(C(=O)Cc4cccc(C(F)(F)F)c4)CC3)nn3cccc23)n[nH]1 [N-(5-methyl-1H-pyrazol-3-yl)-2-(4-((3-(trifluoromethyl)phenyl)acetyl)-1-piperazinyl)pyrrolo[2,1-f][1,2,4]triazin-4-amine]
≤ 5 nM	Cc1cc(Nc2nc(N3CCN(C(=O)c4c(C)cccc4Cl)CC3)nn3cccc23)n[nH]1 [2-(4-(2-chloro-6-methylbenzoyl)-1-piperazinyl)-N-(5-methyl-1H-pyrazol-3-yl)pyrrolo[2,1-f][1,2,4]triazin-4-amine]
≤ 5 nM	Cc1cc(Nc2nc(N3CCN(C(=O)c4ccccc4NC(=O)OC(C)(C)C)CC3)nn3cccc23)n[nH]1 [tert-butyl (2-((4-(4-((5-methyl-1H-pyrazol-3-yl)amino)pyrrolo[2,1-f][1,2,4]triazin-2-yl)-1-piperazinyl)carbonyl)phenyl)carbamate]
≤ 5 nM	Cc1cccc(C(=O)N2CCN(c3nc(Nc4cc(C)[nH]n4)c4cccn4n3)CC2)c1 [2-(4-(3-methylbenzoyl)-1-piperazinyl)-N-(5-methyl-1H-pyrazol-3-yl)pyrrolo[2,1-f][1,2,4]triazin-4-amine]
≤ 5 nM	Cc1cc(Nc2nc(N3CCN(C(=O)c4ccc(C(F)(F)F)cc4)CC3)nn3cccc23)n[nH]1 [N-(5-methyl-1H-pyrazol-3-yl)-2-(4-(4-(trifluoromethyl)benzoyl)-1-piperazinyl)pyrrolo[2,1-f][1,2,4]triazin-4-amine]
≤ 5 nM	Cc1cc(Nc2nc(N3CCN(C(=O)C(O)c4c(F)cccc4F)CC3)nn3cccc23)n[nH]1 (centres unmarked) [1-(2,6-difluorophenyl)-2-(4-(4-((5-methyl-1H-pyrazol-3-yl)amino)pyrrolo[2,1-f][1,2,4]triazin-2-yl)-1-piperazinyl)-2-oxoethanol]
≤ 5 nM	Cc1cc(Nc2nc(N3CCN(C(=O)Cc4ccccc4)CC3)nn3cccc23)n[nH]1 [N-(5-methyl-1H-pyrazol-3-yl)-2-(4-(phenylacetyl)-1-piperazinyl)pyrrolo[2,1-f][1,2,4]triazin-4-amine]
≤ 5 nM	Cc1cc(Nc2nc(N3CCN(C(=O)C(C)(C)c4ccc(Cl)cc4)CC3)nn3cccc23)n[nH]1 [2-(4-(2-(4-chlorophenyl)-2-methylpropanoyl)-1-piperazinyl)-N-(5-methyl-1H-pyrazol-3-yl)pyrrolo[2,1-f][1,2,4]triazin-4-amine]
≤ 5 nM	Cc1cc(Nc2nc(N3CCN(C(=O)Cc4cccc(Cl)c4)CC3)nn3cccc23)n[nH]1 [2-(4-((3-chlorophenyl)acetyl)-1-piperazinyl)-N-(5-methyl-1H-pyrazol-3-yl)pyrrolo[2,1-f][1,2,4]triazin-4-amine]
≤ 5 nM	Cc1cc(Nc2nc(N3CCN(C(=O)C4(C)CC4)CC3)nn3cccc23)n[nH]1 [2-(4-((1-methylcyclopropyl)carbonyl)-1-piperazinyl)-N-(5-methyl-1H-pyrazol-3-yl)pyrrolo[2,1-f][1,2,4]triazin-4-amine]
